Measurements from EP4800018A1, “PAN-KRAS INHIBITOR AND USE THEREOF IN MEDICINES” (Betta Pharmaceuticals Co., Ltd., priority 2023, dated 2025).
Where two headings read alike, the source gives them in different places.

Assay: PK Study of Compounds in Dogs
Type: in vivo, Beagle dogs
Details: mean; for Cmax: read-out: C0/Cmax
Method: The test compound was mixed with the vehicle (10% DMSO/5% Solutol/85% physiological saline), vortexed and sonicated to prepare a clear 1 mg/mL intravenous injection solution. The test compound was mixed with the vehicle (10% DMSO + 5% HS15 + 85% 10 mM aqueous citric acid solution), vortexed and sonicated to prepare a clear 0.6 mg/mL oral solution. Beagle dogs (two males, one female) were selected and administered the test compound via intravenous (IV) and oral (PO) routes, respectively. Whole blood samples were collected at 0 min, 5 min, 15 min, 30 min, 1 h, 2 h, 4 h, 6 h, 8 h, 12 h, 24 h, 48 h, and 72 h for the intravenous route, and at 0 min, 15 min, 30 min, 1 h, 2 h, 4 h, 6 h, 8 h, 12 h, 24 h, 48 h, and 72 h for the oral route. Drug concentrations were analyzed by LC-MS/MS method, and pharmacokinetic parameters were calculated using Phoenix WinNonlin software (Pharsight, USA).

[1] = both sexes, beagle, dog, whole blood, IV 1 mg/kg (n=3)
[2] = both sexes, beagle, dog, whole blood, PO 3 mg/kg (n=3)

- F (PO 3 mg/kg vs IV 1 mg/kg (n=3)): 41.2
- AUC(0-t) [1]: 16600 ng·h/mL
- clearance [1]: 0.659 mL/min/kg
- half-life [1]: 34.8 h
- Cmax [1]: 2020 ng/mL
- Vd (both sexes, beagle, dog, whole blood, IV 1 mg/kg (n=3), read-out: Vss): 2.62 L/kg
- AUC(0-t) [2]: 20500 ng·h/mL
- Tmax [2]: 1.17 h
- Cmax [2]: 608 ng/mL
SMILES: CC1OCCCn2c(c3c4cc(ccc42)-c2csc(n2)CC(NC(=O)C2C(C)C2C)C(=O)N2NC(C(=O)OCC(C)(C)C3)C3CC2C3)-c2cc(N3CCN(C)CC3)cnc21 [Example 186, (1r,2R,3S)-2,3-dimethyl-N-((1^5S,6^4S,4S,Z)-1^5,10,10-trimethyl-1^2-(4-methylpiperazin-1-yl)-5,7-dioxo-1^8,1^9-dihydro-1^5H,1^7H-8-oxa-6^2,6^3-diaza-1(13,15)-pyrido[3',2':7,8][1,5]oxazonino[5,6-a]indola-2(4,2)-thiazola-6(2,4)-bicyclo[3.1.1]heptanacycloundecaphane-4-yl)cyclopropane-1-carbox amide]
